Test results taken from ChEMBL document CHEMBL1641535, “Design and synthesis of potent macrocyclic renin inhibitors” (Bioorg Med Chem Lett, 2011).

Legend:
[1] = tested on: MDCK; test: Efflux ratio of permeability from […] side of wild type MDCK2 cells; assay type: ADME, cell-based, Canis lupus familiaris; settings: dog
[2] = tested on: MDCK; test: Efflux ratio of permeability from […] side of MDCK2 cells over expressing human Pgp; assay type: ADME, cell-based, Canis lupus familiaris; settings: dog
[3] = biological target: Beta-secretase 1 (Homo sapiens, UniProt P56817); test: Inhibition of BACE1
[4] = biological target: T1, Renin (Homo sapiens, UniProt P00797); test: Inhibition of renin
T1 sequence (P00797 whole entry): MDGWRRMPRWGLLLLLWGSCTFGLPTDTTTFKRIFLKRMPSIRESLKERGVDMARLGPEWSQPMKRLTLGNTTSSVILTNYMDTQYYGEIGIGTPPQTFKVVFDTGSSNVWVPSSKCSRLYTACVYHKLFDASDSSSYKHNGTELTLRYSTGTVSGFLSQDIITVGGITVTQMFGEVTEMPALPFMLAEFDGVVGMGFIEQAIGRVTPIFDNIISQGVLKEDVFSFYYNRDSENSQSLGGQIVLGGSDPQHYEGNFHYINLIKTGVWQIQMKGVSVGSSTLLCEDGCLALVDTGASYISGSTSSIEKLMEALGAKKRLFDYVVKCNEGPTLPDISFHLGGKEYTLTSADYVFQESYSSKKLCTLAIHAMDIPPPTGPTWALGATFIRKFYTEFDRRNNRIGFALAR

[5] = biological target: Cathepsin D (Homo sapiens, UniProt P07339); test: Inhibition of cathepsin D
[6] = biological target: T1, Renin; test: Inhibition of human plasma renin; assay type: cell-free
[7] = Apparent permeability across wild type MDCK cells; assay type: ADME, cell-based, Canis lupus familiaris; settings: dog
[8] = tested on: human Pgp; test: Apparent permeability across MDCK cells transfected with human Pgp; assay type: ADME, cell-based, Canis lupus familiaris; settings: dog, MDCK-MDR1
[9] = Intrinsic clearance in human liver microsomes; assay type: ADME, Microsome

Sequence of Cathepsin D (P07339 65-162 limits assumed): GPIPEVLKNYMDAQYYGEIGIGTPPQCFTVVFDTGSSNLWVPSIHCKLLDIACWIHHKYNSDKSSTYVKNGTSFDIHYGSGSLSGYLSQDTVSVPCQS
Sequence of Cathepsin D (P07339 169-412 limits assumed): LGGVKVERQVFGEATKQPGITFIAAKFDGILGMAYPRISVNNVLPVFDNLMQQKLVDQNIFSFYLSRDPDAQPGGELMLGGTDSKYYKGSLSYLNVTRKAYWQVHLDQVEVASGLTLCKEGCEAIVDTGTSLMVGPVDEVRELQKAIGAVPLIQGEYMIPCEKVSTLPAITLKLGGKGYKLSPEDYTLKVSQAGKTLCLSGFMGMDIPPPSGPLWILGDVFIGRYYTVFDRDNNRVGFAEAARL
Sequence of Beta-secretase 1 (P56817 whole entry): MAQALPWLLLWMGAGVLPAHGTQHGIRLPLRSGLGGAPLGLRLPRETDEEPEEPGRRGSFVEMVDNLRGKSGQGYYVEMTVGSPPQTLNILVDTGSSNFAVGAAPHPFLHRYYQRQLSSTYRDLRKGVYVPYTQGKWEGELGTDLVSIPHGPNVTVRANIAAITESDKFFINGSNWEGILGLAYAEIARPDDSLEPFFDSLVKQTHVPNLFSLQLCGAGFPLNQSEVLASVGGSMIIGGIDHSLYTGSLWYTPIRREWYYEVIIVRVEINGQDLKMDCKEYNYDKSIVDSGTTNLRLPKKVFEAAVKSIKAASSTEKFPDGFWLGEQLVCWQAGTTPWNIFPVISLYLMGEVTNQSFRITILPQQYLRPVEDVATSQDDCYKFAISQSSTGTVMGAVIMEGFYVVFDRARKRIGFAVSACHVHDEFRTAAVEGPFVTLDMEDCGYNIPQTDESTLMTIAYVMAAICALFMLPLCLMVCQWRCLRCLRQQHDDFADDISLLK

SMILES | IC50 [3] [nM] | Ki [4] [nM] | Ki [5] [nM] | also measured
COCCCOc1cc(C[C@@H](C[C@H](N)[C@@H](O)C[C@H](C(=O)NCC(C)(C)C(N)=O)C(C)C)C(C)C)ccc1OC |  |  |  | Ratio [1]: 0.7; Ratio [2]: 1.5
CNC(=O)[C@@H](C[C@H](O)[C@@H]1COCc2cccc(c2)C(c2ccccc2)NC(=O)c2cc(cc(N(C)S(C)(=O)=O)c2)C(=O)N1)C(C)C (some centres not stated) | > 10000 | 340 | 1700 | 
COCCOC1CCCc2cc(cc(N(C)S(C)(=O)=O)c2)C(=O)N[C@H]([C@@H](O)C[C@H](C(=O)NCC(C)C)C(C)C)COCc2cccc1c2 (some centres not stated) | > 10000 | 940 | > 5000 | 
CC(C)CNC(=O)[C@@H](C[C@H](O)[C@@H]1COCc2cccc(c2)C(c2ccccc2)NC(=O)c2cc(cc(N(C)S(C)(=O)=O)c2)C(=O)N1)C(C)C (some centres not stated) | 3700 |  | 200 | IC50 [6]: 56 nM; Papp [7]: 0.1 ×10⁻⁶ cm/s; Papp [8]: 0.1 ×10⁻⁶ cm/s
COCCOC1CCc2cc(cc(N(C)S(C)(=O)=O)c2)C(=O)N[C@H]([C@@H](O)C[C@H](C(=O)NCC(C)C)C(C)C)COCc2cccc1c2 (some centres not stated) | > 10000 | > 5000 | > 5000 | 

More lines, in order of falling IC50 [3], values ahead:

IC50 [3] [nM] | Ki [4] [nM] | Ki [5] [nM] | SMILES | also measured
3100 | 130 | 760 | COc1ccc(C2NC(=O)c3cc(cc(N(C)S(C)(=O)=O)c3)C(=O)N[C@H]([C@@H](O)C[C@H](C(=O)NCC(C)C)C(C)C)COCc3cccc2c3)cc1 (some centres not stated) | 
1900 | 450 | 460 | COCCCC1NC(=O)c2cc(cc(N(C)S(C)(=O)=O)c2)C(=O)N[C@H]([C@@H](O)C[C@H](C(=O)NCC(C)C)C(C)C)COCc2cccc1c2 (some centres not stated) | 
30 | 21 | 3.3 | CC(C)[C@H](C[C@H](O)[C@H](COCc1ccccc1)NC(=O)c1cc(C(=O)N[C@H](C)c2ccccc2)cc(N(C)S(C)(=O)=O)c1)C(=O)N[C@H](C(=O)NCc1ccccc1)C(C)C | microsomal CLint [9]: 260 µL/min/mg; IC50 ([6]; read-out: IC50): 38 nM
